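Cells were grown in 96-well plates and exposed to each compound for 48 hours at five concentrations; endpoints were interpolated linearly between bracketing concentrations, or set to the highest concentration if not reached. The concentration for full growth arrest is given as TGI.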
Columns and labels:
Test in all cases: growth of human tumour cells (NCI), 48 h
NCI-H23 lung = test system: NCI-H23 lung
SF-268 CNS = test system: SF-268 CNS
NCI-H226 lung = test system: NCI-H226 lung
HCT-116 colon = test system: HCT-116 colon
UACC-257 melanoma = test system: UACC-257 melanoma
MDA-MB-435 = test system: MDA-MB-435
M14 melanoma = test system: M14 melanoma
CAKI-1 renal = test system: CAKI-1 renal
SF-295 CNS = test system: SF-295 CNS
HL-60(TB) leukemia = test system: HL-60(TB) leukemia
U251 CNS = test system: U251 CNS
NCI-H522 lung = test system: NCI-H522 lung
IGROV1 ovarian = test system: IGROV1 ovarian
786-0 renal = test system: 786-0 renal

| SMILES | TGI (NCI-H23 lung) [µM] | TGI (SF-268 CNS) [µM] | TGI (NCI-H226 lung) [µM] | TGI (HCT-116 colon) [µM] | TGI (UACC-257 melanoma) [µM] | TGI (MDA-MB-435) [µM] | TGI (M14 melanoma) [µM] | TGI (CAKI-1 renal) [µM] | TGI (SF-295 CNS) [µM] | TGI (HL-60(TB) leukemia) [µM] | TGI (U251 CNS) [µM] | TGI (NCI-H522 lung) [µM] | TGI (IGROV1 ovarian) [µM] | TGI (786-0 renal) [µM] |
| --- | --- | --- | --- | --- | --- | --- | --- | --- | --- | --- | --- | --- | --- | --- |
| Nc1nc2c(ncn2Cc2ccccc2CO)c(=O)[nH]1 | > 100 | > 100 | > 100 | > 100 | > 100 | > 100 | > 100 | > 100 | > 100 | > 100 | > 100 | > 100 | > 100 | > 100 |
| CCN(CC)CCNc1ccc2nnn3c4ccc(O)cc4c(=O)c1c23 | 19.7 | 21.7 | 14.7 | 15.6 | 24.9 | 17.4 | 20.1 | 13.4 | 17.8 | 25.1 | 18.2 | 20.9 | 20.5 | 15.6 |
| COc1ccc2nc3ccc(OC)cc3c(SCc3ccccc3)c2c1 | > 100 | > 100 | > 100 | > 100 | > 100 | > 100 | > 50 | > 100 | > 100 | > 100 | > 100 | > 100 | > 100 | > 100 |
| CC(OC(=O)C(CC(=O)OC(C)(C)C)NC(=O)OC(C)(C)C)C(=O)OCc1ccccc1 (stereo not drawn) | > 100 | > 100 | > 100 | > 100 | > 100 | > 100 | > 100 | > 100 | > 100 | > 100 | > 100 | > 100 | > 100 | > 100 |
| CCOC1Oc2ccccc2-c2nc(SC)ncc21 (stereo not drawn) | > 100 | > 100 | > 100 | > 100 | > 100 | > 100 | > 100 | > 100 | > 100 | > 100 | > 100 | > 100 | > 100 | > 100 |
| COC(=O)/C=C/C1(O)C=CC(=O)C=C1 | 17.5 | 5.84 | 47.1 | 3.73 | 13.6 | > 39.2 | 3.78 | 4.46 | 38.3 | 6.8 | > 26.5 | 0.598 | 7.74 | 5.36 |
| O=C(C/C(=N/O)c1cc(-c2ccccc2)no1)c1ccccc1 | 43.3 | 42.5 | 56.7 | 60 | > 100 | > 100 | > 100 | > 100 | > 100 | 74.6 | 60.5 | 37.2 | 86 | 42.3 |
| COC(=O)CCC(C)C1CCC2C3C(C[C@H](OC(C)=O)[C@]12C)[C@@]1(C)CCC2(C[C@H]1C[C@H]3OC(C)=O)OOC1(CC[C@]3(C)C4C[C@H](OC(C)=O)[C@]5(C)C(C(C)CCC(=O)OC)CCC5C4[C@H](OC(C)=O)C[C@@H]3C1)OO2 (stereo partly drawn) | > 100 | > 100 | > 100 | > 100 | > 100 | > 100 | > 100 | > 100 | > 100 | > 100 | > 100 | > 100 | > 100 | > 100 |
| C[N+](C)(C)CC(=O)N/N=C/c1ccncc1 | > 100 | > 100 | > 100 | > 100 | > 100 | > 100 | > 100 | > 100 | > 100 | > 100 | > 100 | > 100 | > 100 | > 100 |
| CC1=CC(=O)CC(C)(C)C1/C=C/C(C)=C/C=C/C(C)=C/C=C/C=C(C)/C=C/C=C(C)/C=C/C1=C(C)CC(O)CC1(C)C (stereo not drawn) | > 100 | > 100 | > 100 | 37.4 | > 100 | 84.8 | > 100 | > 100 | > 100 | > 100 | > 100 | 72.7 | > 100 | 72.5 |
| COc1ccc(/C=C2\CCC/C(=C\c3ccc(O)c(CN4CCCCC4)c3)C2=O)cc1 | 41.3 | 13.1 | 45.8 | 13.1 | 40.4 | 39.6 | 35.3 | > 74.6 | 36.4 | > 100 | 33.9 | 19.1 | 41.5 | 19.3 |
| CCOC(=O)C(C(=S)SC)c1nn2c(=O)cc(C)nc2s1 (stereo not drawn) | 39 | 34 | 34.6 | 34.3 | 44.2 | 32.4 | 29.8 | 37.3 | 44.6 | 35.3 | 30.6 | 42.5 | 38.1 | 36.1 |

— PubChem BioAssay (NCI)
